The test system of the experiment is UPR adaptive arm reporter cells, luciferase luminescence. Nature of the experiment: adaptive unfolded protein response reporter activation – cell-based, luciferase luminescence, dose response (AID 489032).

Active and inactive are the calls of the source. No rule for the calls is given here.

Turning to `CN1Cc2c(N3CCOCC3)nc3sc(C(=O)c4ccc(Br)cc4)c(N)c3c2CC1(C)C`, the EC50 was > 80 µM (inactive). To `CC1=C(CC/C(C)=N/NC(N)=S)C(C)(C)CCC1` belongs 29.3 µM (inactive); to `CCOc1ccc(-n2c(C)cc(C(=O)CCl)c2C)cc1`, 8.94 µM; to `CCC(=O)Nc1cccc(C(=O)/C=C/c2ccc(F)cc2)c1`, > 80 µM (inactive). For `Cc1cc(C)c2c(n1)sc1c(-c3ccccc3)c(C#N)c(N)nc12`, the EC50 was > 80 µM (inactive). To `CCOC(=O)c1c2ccc(OCC(=O)N/N=C/c3ccc(C)cc3)cc2n2ccccc12` belongs > 80 µM (inactive); to `O=C(c1ccc2c(c1)[nH]c(=S)n1c3ccccc3nc21)N1CCN(c2cccc(Cl)c2)CC1`, > 80 µM (inactive).

For the molecule `COc1ccc(S(=O)(=O)N2c3cc(Cl)ccc3Oc3nc4ccccc4nc32)cc1`, the EC50 was > 80 µM (inactive). The value for `O=C(CSc1nc2ccc(Nc3nc(N4CCOCC4)nc(N4CCOCC4)n3)cc2s1)Nc1ccccc1F` was 11.7 µM. To `COc1cccc(-n2c(SCC(=O)N3CCc4ccccc43)nnc2-c2c[nH]c3ccccc23)c1` belongs > 80 µM (inactive); to `COc1ccc2c(c1)[nH]c1c(=O)n(/N=C/C3C(C)C=C(C)CC3C)c(=O)[nH]c12` (stereo unspecified), 65.8 µM (inactive). To `O=C(CSc1nc2ccccc2c(=O)n1-c1ccccc1)N1CCc2ccccc21` belongs > 80 µM (inactive); to `O=c1cc(CN2CCN(c3ccc(F)cc3)CC2)c2cc3c(cc2o1)CCCC3`, 17.6 µM.

For `CC1(C)C=Cc2c(c3c(c4c(=O)c(-c5ccc(O)cc5)coc24)OC(C)(C)CC3)O1`, the EC50 is > 80 µM (inactive).

In the case of `O=Cc1cc2ccccc2nc1SCc1ccc(Cl)cc1`, the EC50 is 40.2 µM (inactive). Consider `Cn1nc(C(F)(F)F)c(/C=N/OC(=O)c2ccccc2)c1SCc1ccc(Cl)cc1`, for which the EC50 is 35.5 µM (inactive). For `c1cc(SC2CCCCC2)cc(-c2nc3cnccn3c2NC2CCCCC2)c1`, the EC50 was 28.9 µM (inactive). The value for `Cc1ccc(-n2nc3c(N4CCC(C(=O)NCCc5cccs5)CC4)nnc(C)c3c2C)cc1` was > 80 µM (inactive); that for `COc1cc(-c2ccc3oc(-c4ccsc4)cc3c2)cc(OC)c1OC` was > 80 µM (inactive). In the case of `COc1ccc([N+](=O)[O-])cc1COc1ccc2c(-c3ccccc3)cc(=O)oc2c1`, the EC50 is > 80 µM (inactive).

Turning to `COc1ccc(C(=O)/C=C/c2ccc(O)cc2)c(O)c1C/C=C(\C)CCC=C(C)C`, the EC50 was > 80 µM (inactive).

In the case of `COc1ccc(C(CCNCc2ccccc2)c2ccc(F)cc2)cc1` (stereo unspecified), the EC50 is 10.7 µM.

In the case of `CCOc1ccc(C(=O)Nc2ccc(NC(=O)c3ccco3)c(Cl)c2)cc1Cl`, the EC50 was > 80 µM (inactive).

`COc1ccc(/C=N/NC(=O)c2cccc([N+](=O)[O-])c2)c2ccccc12`: the EC50 was > 80 µM (inactive). The value for `O=C(NN1C(=O)/C(=C/c2ccc(O)c(O)c2)SC1=S)c1ccccc1` was > 80 µM (inactive). The value for `Nc1nc(-c2cc(O)ccc2[N+](=O)[O-])cc(-c2ccccc2)c1[N+](=O)[O-]` was 8.27 µM; that for `Cc1ccc(N2CCN(c3ccc(NCc4nc5ccccc5n4C)cc3)CC2)cc1` was > 80 µM (inactive). With `N#C/C(=C\Nc1ccc2cn[nH]c2c1)c1nc(-c2ccc(Cl)cc2)cs1`, the half-maximal effective concentration (EC50) was 15.1 µM. `N#Cc1ccc(N/N=C/c2cn(-c3ccccc3)nc2-c2ccccc2)c([N+](=O)[O-])c1`: the EC50 is > 80 µM (inactive).

With `COc1cccc(-c2sc3ccccc3c2-c2ccc(OCCN(C)C)cc2)c1`, the EC50 was > 80 µM (inactive). As to `N=c1n(CC(=O)c2ccc([N+](=O)[O-])cc2)c2ccccc2n1Cc1ccc(Cl)cc1`, the EC50 was > 80 µM (inactive).

In the case of `CCc1ccc2[nH]c3nc(SCc4nnc(-c5ccc(C)cc5)o4)nnc3c2c1`, the EC50 is 39.9 µM (inactive). The value for `O=c1[nH]c(O)c(/C=C2/C=CC(c3cc(Cl)ccc3Cl)=N2)c(=O)[nH]1` was 9.68 µM; that for `CCCCOc1ccccc1NC(=O)Cn1c(-c2nonc2N)nc2ccccc21` was 22 µM (inactive); that for `Cc1ccc(Nc2nc(NCc3ccco3)c3ccccc3n2)cc1` was 17.8 µM. To `COc1cccc(/C=N/Nc2ccc([N+](=O)[O-])cn2)c1O` belongs > 80 µM (inactive); to `O=C(Nc1ccc2oc(-c3ccccc3Cl)nc2c1)c1cncc(Br)c1`, > 80 µM (inactive); to `Cc1sc(NC(=O)c2cc(-c3ccc(Cl)cc3)nc3ccccc23)c(C(N)=O)c1C`, 23.9 µM (inactive). The value for `CCOc1ccccc1-n1c(SCC(=O)Nc2ccc(CC)cc2)nc2n[nH]c(C)c2c1=N` was 5.91 µM; that for `CCOC(=O)c1nnc(-c2ccccc2)nc1Sc1c(Cl)cccc1Cl` was > 80 µM (inactive). As to `C#CCn1c(=NC(=O)c2ccc(Cl)s2)sc2cccc(OC)c21`, the EC50 is > 80 µM (inactive). For `O=C(Nc1ccc(O)c2c(=O)cc(-c3cccc(Cl)c3)oc12)c1cccc(Cl)c1`, the EC50 is 20.9 µM (inactive). For the molecule `Cc1nc(Nc2nc(-c3ccccc3)cc(=O)[nH]2)nc2ccccc12`, the EC50 was 11.9 µM. The value for `Cc1ccc(Cc2cnc(NC(=O)/C(C#N)=C/c3ccc(-c4ccc([N+](=O)[O-])cc4)o3)s2)cc1` was 9.69 µM; that for `Cc1ccc(F)cc1N=Cc1c(O)c2ccccc2oc1=O` was 10.1 µM; that for `COc1ccc(/C=C/c2nc3cc(-c4ccccc4)ccc3o2)cc1O` was > 80 µM (inactive). `CCc1cc2c(=O)c(-c3cnn(-c4ccccc4)c3)c(C)oc2cc1OCC(=O)Nc1cccc(C)c1`: the EC50 is > 80 µM (inactive). To `Cc1[nH]c2ccccc2c1/C=C/c1nc2ccccc2c(=O)n1-c1ccc([N+](=O)[O-])cc1` belongs > 80 µM (inactive); to `CCOC(=O)C1=C(C)N=C2c3ccccc3C(=O)C2C1c1ccc(C)cc1` (stereo unspecified), > 80 µM (inactive); to `COc1ccc(Br)cc1-c1nc2c(c(=O)[nH]c(=O)n2Cc2ccccc2)n1C`, 63.1 µM (inactive). The value for `CC1CCc2cc(F)ccc2N1C(=O)CSc1nnc2c(n1)[nH]c1ccc(F)cc12` (stereo unspecified) was > 80 µM (inactive); that for `Cc1cccc(NC(=O)c2nc[nH]c2C(=O)Nc2ccccc2[N+](=O)[O-])c1` was > 80 µM (inactive). To `C=C(C)[C@@]12OC3(c4ccccc4)O[C@@H]1C1[C@@H]4O[C@]4(CO)[C@@H](O)[C@]4(O)C(=O)C(C)=C[C@H]4[C@@]1(O3)[C@H](C)[C@H]2OC(=O)/C=C/C=C/c1ccccc1` (stereo partly specified) belongs 39.1 µM (inactive). With `CCN(CC)c1ccc(N=Cc2c(O)n(Cc3ccccc3)c(=O)[nH]c2=O)cc1`, the EC50 is 62.5 µM (inactive). Regarding `CCn1cc(C(=O)NC(=S)Nc2sc3c(c2C(=O)OC)CCCCCC3)cn1`, the EC50 is > 80 µM (inactive).

As for `Cc1ccc2nsnc2c1NC(=O)c1ccc(-c2cc(Cl)ccc2Cl)o1`, the EC50 was > 80 µM (inactive). The value for `OC(CNCC1CCCO1)Cn1c2ccc(Cl)cc2c2cc(Cl)ccc21` (stereo unspecified) was > 80 µM (inactive); that for `Fc1ccc(Nc2nc(NCc3ccco3)c3ccccc3n2)cc1` was > 80 µM (inactive); that for `CCOC(=O)c1c(NC(C)=O)sc2c(OCC(O)CNC(C)(C)C)c(Br)ccc12` (stereo unspecified) was > 80 µM (inactive).

Consider `CCCCN1C(=O)C(=O)c2cc(Cl)ccc21`, for which the EC50 was 52.4 µM (inactive).

As to `COc1ccc(-c2nn(C)c(=O)c3ccccc23)cc1NC(=O)Cn1nc(C)c2ccccc2c1=O`, the EC50 is 28 µM (inactive).

With `COc1ccc(-c2cc(-c3ccccc3)c(C#N)c(S(C)(=O)=O)n2)cc1`, the EC50 is 4.88 µM. To `CCOC(=O)c1nnc(-c2ccccc2)nc1Oc1ccc(Cl)cc1` belongs > 80 µM (inactive). For `COc1ccc(C(=O)Oc2cc3c4c(c2)C(C)=CC(C)(C)N4C(=O)C3=O)cc1OC`, the EC50 was 25.4 µM (inactive). Regarding `Cc1ccc(-c2nnc(-c3ccc(NC(=O)c4cccs4)cc3)o2)cc1`, the EC50 is 15.9 µM. The value for `COc1ccccc1-c1sc2cc3c(cc2c1-c1ccc(OCCN2CCCCC2)cc1)OCO3` was > 80 µM (inactive); that for `CC(C)N=C(NS(=O)(=O)c1ccccc1)C(Cl)(Cl)Cl` was > 80 µM (inactive); that for `Cc1cc(-n2c(SCC(=O)Nc3ccc(F)c(F)c3)nc3n[nH]c(C)c3c2=N)ccc1Cl` was > 80 µM (inactive).

As for `CCOc1cccc(C(=O)Nc2cccc(-c3nnc(-c4ccc(C)cc4)o3)c2)c1`, the EC50 was > 80 µM (inactive). The value for `CN(C)C(=O)CCc1ccc2c3c([nH]c2c1)[C@]1(CCc2ccccc2)[C@@H](C(=O)N2CCCCC2)C[C@H](CC(=O)NCCC2=CCCCC2)C(=O)N1CC3` was 35.9 µM (inactive); that for `COc1ccccc1N=Cc1c(O)c2ccccc2oc1=O` was 16.4 µM; that for `COc1ccc(OC)c(Nc2nc(NCc3ccco3)nc(N)c2[N+](=O)[O-])c1` was > 80 µM (inactive). `COc1ccc(-c2sc3ccccc3c2-c2ccc(OCCN(C)C)cc2)cc1`: the EC50 is > 80 µM (inactive). The value for `CCOc1cc(/C=C(\C#N)c2[nH]nc(N)c2C#N)ccc1O` was > 80 µM (inactive).

For `C=CCN=C1S/C(=C/c2cccc([N+](=O)[O-])c2)C(=O)N1CC=C`, the EC50 was > 80 µM (inactive). Regarding `O=C(C[C@H]1C/C=C\C[C@@H](NC(=O)OCC2c3ccccc3-c3ccccc32)C(=O)O[C@@H](c2ccccc2)CNC1=O)N[C@H](CO)Cc1ccccc1`, the EC50 was 20 µM.

Consider `CC1CCCN(c2ccc(C(=O)NCc3cccs3)cn2)C1` (stereo unspecified), for which the EC50 is > 80 µM (inactive).

For `CN(/N=C\c1ccc(O)c(O)c1)c1nc(-c2ccccc2)cc(-c2ccccc2)n1`, the EC50 was 8.69 µM. The value for `CCOC(=O)/C(=N\Nc1ccc(C(C)=O)cc1)c1csc(Nc2ccccc2)n1` was > 80 µM (inactive). The value for `O=C(Cn1c2ccc(F)cc2c2nc3n(c(=O)c21)CCS3)Nc1ccc(Cl)cc1F` was > 80 µM (inactive). Take `CN(c1ccccc1)S(=O)(=O)c1cccc(C(=O)NCCc2ccc(O)c(O)c2)c1`: the EC50 was 32.2 µM (inactive).

These data come from PubChem BioAssay AID489032 (Sanford-Burnham Center for Chemical Genomics, 2010).
